Assay results as given in US8952024B2, “Herbicidal pyrimidone derivatives” (E I du Pont de Nemours and Company, priority 2009, dated 2015).

How the values were obtained:
Format in all cases: in vivo
[1] = tested on: canarygrass (Phalaris minor); assay: Test B postemergence plant response; conditions: for Canarygrass plant response rating (0 to 100 scale): 62 g ai/ha, 0 is no effect, 13 to 15 days
Procedure, shortened: (§1)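 Plants at the 1- to 4-leaf stage (2 to 18 cm tall), grown in pots of peat moss/vermiculite medium with wetting agent and starter nutrients, received postemergence applications of test chemicals. After 13 to 15 days in a greenhouse, injury was rated visually against untreated controls on a 0 (no effect) to 100 (complete control) scale.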

[2] = tested on: chickweed (Stellaria media); assay: Test B postemergence plant response; conditions: for Chickweed plant response rating (0 to 100 scale): 62 g ai/ha, 0 is no effect, 13 to 15 days
Procedure, shortened: as §1

[3] = tested on: windgrass (Apera spica-venti); assay: Test B postemergence plant response; conditions: for Windgrass plant response rating (0 to 100 scale): 62 g ai/ha, 0 is no effect, 13 to 15 days
Procedure, shortened: as §1

[4] = tested on: velvetleaf (Abutilon theophrasti); assay: Test A pre-/postemergence plant response
Procedure, shortened: (§2)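 Plants grown from seed in a loam soil and sand mix received test compounds both as a preemergence soil spray and, at the same time, as a postemergence spray at the one- to two-leaf stage. Injury was judged visually against untreated controls roughly ten days later, 0 meaning no effect and 100 complete control.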

[5] = tested on: wheat (Triticum aestivum); assay: Test A pre-/postemergence plant response
Procedure, shortened: as §2

[6] = tested on: giant foxtail (Setaria faberii); assay: Test A pre-/postemergence plant response
Procedure, shortened: as §2

[7] = tested on: morningglory (Ipomoea spp.); assay: Test A pre-/postemergence plant response
Procedure, shortened: as §2

[8] = tested on: large crabgrass (Digitaria sanguinalis); assay: Test A pre-/postemergence plant response
Procedure, shortened: as §2

[9] = tested on: barnyardgrass (Echinochloa crus-galli); assay: Test A pre-/postemergence plant response
Procedure, shortened: as §2

[10] = tested on: pigweed (Amaranthus retroflexus); assay: Test A pre-/postemergence plant response
Procedure, shortened: as §2

corn (Zea mays) = assay: Test A pre-/postemergence plant response
Procedure, shortened: as §2

[11] = tested on: ducksalad (Heteranthera limosa); assay: Test B flooded paddy test; conditions: for Plant response rating, Flood, Ducksalad: 250 g ai/ha, flooded paddy test, visual rating on 0 to 100 scale (0 no effect, 100 complete control) after 13 to 15 days; for Plant response rating, Ducksalad: Flood (flooded paddy test), 13 to 15 days; for Ducksalad plant response rating: Flood, 31 g ai/ha, scale 0 to 100 (0 no effect, 100 complete control)
Procedure, shortened: (§3)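 Each compound is added to standing floodwater (3 cm above soil, maintained) in pots of 2-leaf-stage plants; greenhouse exposure lasts 13–15 d before visual comparison with controls on a 0–100 control scale.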

rice (Oryza sativa) = assay: Test B flooded paddy test; conditions: for Plant response rating, Flood, Rice: 250 g ai/ha, flooded paddy test, visual rating on 0 to 100 scale (0 no effect, 100 complete control) after 13 to 15 days; for Plant response rating, Rice: Flood (flooded paddy test), 13 to 15 days; for Rice plant response rating: Flood, 31 g ai/ha, scale 0 to 100 (0 no effect, 100 complete control)
Procedure, shortened: as §3

[12] = 31 g ai/ha, postemergence, scale 0 to 100, 0 is no effect, 100 is complete control
[13] = postemergence, 100 is complete control
[14] = Postemergence, 125 g ai/ha, visual rating after 13 to 15 days, scale 0 (no effect) to 100 (complete control)
[15] = Postemergence, 250 g ai/ha, scale 0 to 100 (0 no effect, 100 complete control)
[16] = Postemergence, 125 g ai/ha, 0 to 100 scale where 0 is no effect and 100 is complete control
[17] = Postemergence, 500 g ai/ha, 0 to 100 scale, 0 = no effect, 100 = complete control, approx. ten days
[18] = Preemergence, 125 g ai/ha, 0 to 100 scale, 0 = no effect, 100 = complete control
[19] = Preemergence, 500 g ai/ha, visual injury, 0 to 100 scale (0 no effect, 100 complete control), approx. ten days
[20] = 62 g ai/ha, scale of 0 to 100 where 0 is no effect and 100 is complete control
[21] = 125 g ai/ha, scale 0 to 100, 0 is no effect, 100 is complete control

CCCCCn1c(-c2ccccc2)ncc(C(=O)C2=C(O)CCCC2=O)c1=O [Compound 89]
Plant response rating, Canarygrass [1, 12]: 10
Canarygrass plant response rating (0 to 100 scale) [1, 13]: 35
Plant response rating, Canarygrass [1, 14]: 50
Plant response rating, Canarygrass [1, 15]: 60
Plant response rating, Chickweed [2, 12]: 75
Chickweed plant response rating (0 to 100 scale) [2, 13]: 80
Plant response rating, Chickweed [2, 14]: 98
Plant response rating, Chickweed [2, 15]: 98
Plant response rating, Windgrass [3, 12]: 0
Windgrass plant response rating (0 to 100 scale) [3, 13]: 5
Plant response rating, Windgrass [3, 15]: 50
Plant response rating, Velvetleaf [4, 16]: 100
Plant response rating, Velvetleaf [4, 17]: 100
Plant response rating, Velvetleaf [4, 18]: 70
Plant response rating, Velvetleaf [4, 19]: 100
Plant response rating, Wheat [5, 16]: 0
Plant response rating, Wheat [5, 17]: 20
Plant response rating, Wheat [5, 18]: 0
Plant response rating, Wheat [5, 19]: 30
Plant response rating, Foxtail, Giant [6, 16]: 60
Plant response rating, Foxtail, Giant [6, 17]: 90
Plant response rating, Foxtail, Giant [6, 18]: 20
Plant response rating, Foxtail, Giant [6, 19]: 70
Plant response rating, Morningglory [7, 16]: 100
Plant response rating, Morningglory [7, 17]: 100
Plant response rating, Morningglory [7, 18]: 0
Plant response rating, Morningglory [7, 19]: 70
Plant response rating, Crabgrass, Large [8, 16]: 90
Plant response rating, Crabgrass, Large [8, 17]: 100
Plant response rating, Crabgrass, Large [8, 18]: 60
Plant response rating, Crabgrass, Large [8, 19]: 90
Plant response rating, Barnyardgrass [9, 16]: 90
Plant response rating, Barnyardgrass [9, 17]: 90
Plant response rating, Barnyardgrass [9, 18]: 20
Plant response rating, Barnyardgrass [9, 19]: 80
Plant response rating, Pigweed [10, 16]: 100
Plant response rating, Pigweed [10, 17]: 100
Plant response rating, Pigweed [10, 18]: 90
Plant response rating, Pigweed [10, 19]: 100
Plant response rating, Corn (corn (Zea mays); [16]): 0
Plant response rating, Corn (corn (Zea mays); [17]): 10
Plant response rating, Corn (corn (Zea mays); [18]): 0
Plant response rating, Corn (corn (Zea mays); [19]): 0
Plant response rating, Flood, Ducksalad [11]: 100
Plant response rating, Ducksalad [11, 20]: 90
Plant response rating, Ducksalad [11, 21]: 100
Ducksalad plant response rating [11]: 45
Plant response rating, Flood, Rice (rice (Oryza sativa)): 15
Plant response rating, Rice (rice (Oryza sativa); [20]): 0
Plant response rating, Rice (rice (Oryza sativa); [21]): 0
Rice plant response rating (rice (Oryza sativa)): 0

O=C1CCCC(OC(=O)C2CC2)=C1C(=O)c1cnc(-c2ccccc2)n(-c2ccccc2)c1=O [Compound 88]
Plant response rating, Canarygrass [1, 12]: 60
Canarygrass plant response rating (0 to 100 scale) [1, 13]: 70
Plant response rating, Canarygrass [1, 14]: 80
Plant response rating, Canarygrass [1, 15]: 90
Plant response rating, Chickweed [2, 12]: 75
Chickweed plant response rating (0 to 100 scale) [2, 13]: 85
Plant response rating, Chickweed [2, 14]: 95
Plant response rating, Chickweed [2, 15]: 95
Plant response rating, Windgrass [3, 12]: 40
Windgrass plant response rating (0 to 100 scale) [3, 13]: 60
Plant response rating, Windgrass [3, 15]: 70
Plant response rating, Velvetleaf [4, 16]: 100
Plant response rating, Velvetleaf [4, 17]: 100
Plant response rating, Velvetleaf [4, 18]: 80
Plant response rating, Velvetleaf [4, 19]: 100
Plant response rating, Wheat [5, 16]: 0
Plant response rating, Wheat [5, 17]: 0
Plant response rating, Wheat [5, 18]: 0
Plant response rating, Wheat [5, 19]: 10
Plant response rating, Foxtail, Giant [6, 16]: 60
Plant response rating, Foxtail, Giant [6, 17]: 90
Plant response rating, Foxtail, Giant [6, 19]: 100
Plant response rating, Morningglory [7, 16]: 90
Plant response rating, Morningglory [7, 17]: 100
Plant response rating, Morningglory [7, 18]: 50
Plant response rating, Morningglory [7, 19]: 70
Plant response rating, Crabgrass, Large [8, 16]: 90
Plant response rating, Crabgrass, Large [8, 17]: 90
Plant response rating, Barnyardgrass [9, 16]: 80
Plant response rating, Barnyardgrass [9, 17]: 90
Plant response rating, Barnyardgrass [9, 18]: 10
Plant response rating, Barnyardgrass [9, 19]: 90
Plant response rating, Pigweed [10, 16]: 100
Plant response rating, Pigweed [10, 17]: 100
Plant response rating, Corn (corn (Zea mays); [16]): 0
Plant response rating, Corn (corn (Zea mays); [17]): 60
Plant response rating, Corn (corn (Zea mays); [18]): 0
Plant response rating, Corn (corn (Zea mays); [19]): 0
Plant response rating, Flood, Ducksalad [11]: 80
Plant response rating, Ducksalad [11, 20]: 40
Plant response rating, Ducksalad [11, 21]: 75
Ducksalad plant response rating [11]: 30
Plant response rating, Flood, Rice (rice (Oryza sativa)): 50
Plant response rating, Rice (rice (Oryza sativa); [20]): 0
Plant response rating, Rice (rice (Oryza sativa); [21]): 40
Rice plant response rating (rice (Oryza sativa)): 0
